Experiments:
[1] = tested on: voltage operated calcium channels; assay: Depolarization (potassium) induced 45Ca uptake into synaptosomes; assay type: biochemical, male Wistar rat; conditions: concentration inhibiting 50% of potassium stimulated uptake of 45Ca; rat cerebral cortex synaptosomes; corrected for basal uptake in non-depolarized samples
Procedure: A crude synaptosome preparation contains small vesicles surrounded by neuronal membranes, and it is possible to study an opening of the voltage operated calcium channels in such a preparation.
In the below described test influx of ^45Ca into synaptosomes is studied under depolarized conditions. The effect of test substances on the depolarization induced calcium uptake can thus be studied.
The cerebral cortex from a male Wistar rat is homogenized in 20 ml ice cold 0.32M saccharose. In the following steps the temperature is kept at 0°C to 4°C. The homogenate is centrifuged at 1,000 x g for 10 minutes and the supernatant recentrifuged for 20 minutes at 18,000 x g. The obtained pellet is resuspended in 0.32M saccharose (10 ml per g of original tissue).
Aliquots of 0.05 ml of the hereby obtained synaptosome suspension are added to glass tubes containing 0.625 ml of a NaCl buffer (136 mM Nacl, 4 Mm KCl, 0.35 mM CaCl2, 1.2 mM MgCl2, 20 mM Tris HCl, 12 mM glucose, pH 7.4) as well as 0.025 ml of different test substances in 48% ethanol. These tubes are pre-incubated for 30 minutes on ice and thereafter for 6 minutes at 37°C.
^45Ca uptake is initiated by addition to above glass-tubes of 0.4 ml ^45CaCl2 (specific activity: 29-39 Ci/g; […] per tube). For depolarized samples the 0.4 ml ^45CaCl2 contain KCl (145 mM) and for non-depolarized NaCl (145 mM). The samples are incubated for 15 seconds.
The ^45Ca uptake is stopped by filtering through glass fibre filters, which are subsequently washed 3 times with an ice cold solution of 145 mM KCl, 7 mM EGTA and 20 mM Tris HCl, pH 7.4 (5.0 ml). The radioactivity on the filters are measured by liquid scintillation spectrometry. Experiments are performed in duplicate.
Above test substances are dissolved in for example 10 ml 48% ethanol at a concentration of 0.44 mg/ml. Dilutions are made in ethanol. Test substances are tested at concentrations of 0.1, 0.3, 1, 3, 10 .... µg/ml.
The test value is given as IC50, that is the concentration in µM of the test substances, which inhibit 50% of the potassium stimulated uptake of ^45Ca. […]

hypermotility in mice = assay: Hypermotility in mice induced by amphetamine or cocaine; assay type: in vivo; conditions: result in words
From the text: This is in full accordance with the influence of N-type calcium channel blockers on transmitter release in the central nervous system. Therefore the compounds of the invention are useful as anti-psychotics.

Row | IC50 [1] | Compound | antagonism of hypermotility (hypermotility in mice)
1 | 700 nM | COc1ccc(OC)c(-n2c(N)nc3cc(C(F)(F)F)ccc32)c1 [1-(2,5-dimethoxyphenyl)-2-amino-5-trifluoromethyl-benzimidazole] | –
2 | 2000 nM | Nc1nc2cc(C(F)(F)F)ccc2n1-c1cc(Cl)ccc1O [1-(2-hydroxy-5-chlorophenyl)-5-trifluoromethyl-2-amino-benzimidazole] | –
3 | – | Nc1nc2ccccc2n1-c1cc(-c2ccccc2)ccc1O [1-(2-hydroxy-5-phenyl-phenyl)-2-aminobenzimidazole] | potently antagonize
4 | 2000 nM | Nc1nc2cc(F)ccc2n1-c1cccc(N2CCCC2)c1 [1-(5-(1-pyrrolidinyl)-phenyl)-2-amino-5-fluoro-benzimidazole] | –
